According to US9844226B2 (AJINOMOTO CO., INC., priority 2009, dated 2017):

Key:
panelists = experiment: Sensory evaluation of salty taste in low salt chicken stock, use in combination with an organic acid; format: in vivo, human; conditions: γ-Glu-Abu 0.0040 g/dL in low salt chicken stock (salt 0.48 g/dL); control = 3, 1.25x salt = 4, 1.5x salt = 5; n=6
Description: The sensory evaluation tests were carried out as follows. […] A test compound in an appropriate amount was dissolved in the solution, and the salty taste strength was measured. No pH adjustment is necessary, such as the lowering of the pH, because there is no difference in pH between the solution after dissolving each test compound and the control without any added compound. […] To clarify the scale, the sensory evaluation scores were set as follows: the salty taste of the control: 3 points; the salty taste of a soup with increased salt concentration by 1.25 times as compared to that of control: 4 points; and the salty taste of a soup with increased salt concentration by 1.5 times as compared to that of the control: 5 points. The sensory evaluation was carried out using a panel of n (the number of panelists)=6. For the scoring a linear scale method was used. In this method, the score was marked as a position on a straight line showing positions for scores ranging from 1 3 5. The panelists used in this test were persons who had been engaged in the development of seasonings for foods for at least one year or longer in total, and who were capable of determining that the difference in potency between γ-[…] and γ-[…] each added to an umami and salty taste solution was around 10 times, while confirming the ability of these persons at regular intervals.

human CaSR = target: T1, human CaSR (Homo sapiens, UniProt P41180, E1011Q); experiment: Evaluation of CaSR agonist activity (Ca2+ fluorescence, EC50); format: cell-based; conditions: comparison with other dipeptides
T1 construct: expressed in transfected cells; host or cells: 293E cells (EBNA1-expressing HEK293 cells, ATCC No. CRL-10852), transient transfection with Fugene6
T1 sequence (P41180 20-1078 E1011Q): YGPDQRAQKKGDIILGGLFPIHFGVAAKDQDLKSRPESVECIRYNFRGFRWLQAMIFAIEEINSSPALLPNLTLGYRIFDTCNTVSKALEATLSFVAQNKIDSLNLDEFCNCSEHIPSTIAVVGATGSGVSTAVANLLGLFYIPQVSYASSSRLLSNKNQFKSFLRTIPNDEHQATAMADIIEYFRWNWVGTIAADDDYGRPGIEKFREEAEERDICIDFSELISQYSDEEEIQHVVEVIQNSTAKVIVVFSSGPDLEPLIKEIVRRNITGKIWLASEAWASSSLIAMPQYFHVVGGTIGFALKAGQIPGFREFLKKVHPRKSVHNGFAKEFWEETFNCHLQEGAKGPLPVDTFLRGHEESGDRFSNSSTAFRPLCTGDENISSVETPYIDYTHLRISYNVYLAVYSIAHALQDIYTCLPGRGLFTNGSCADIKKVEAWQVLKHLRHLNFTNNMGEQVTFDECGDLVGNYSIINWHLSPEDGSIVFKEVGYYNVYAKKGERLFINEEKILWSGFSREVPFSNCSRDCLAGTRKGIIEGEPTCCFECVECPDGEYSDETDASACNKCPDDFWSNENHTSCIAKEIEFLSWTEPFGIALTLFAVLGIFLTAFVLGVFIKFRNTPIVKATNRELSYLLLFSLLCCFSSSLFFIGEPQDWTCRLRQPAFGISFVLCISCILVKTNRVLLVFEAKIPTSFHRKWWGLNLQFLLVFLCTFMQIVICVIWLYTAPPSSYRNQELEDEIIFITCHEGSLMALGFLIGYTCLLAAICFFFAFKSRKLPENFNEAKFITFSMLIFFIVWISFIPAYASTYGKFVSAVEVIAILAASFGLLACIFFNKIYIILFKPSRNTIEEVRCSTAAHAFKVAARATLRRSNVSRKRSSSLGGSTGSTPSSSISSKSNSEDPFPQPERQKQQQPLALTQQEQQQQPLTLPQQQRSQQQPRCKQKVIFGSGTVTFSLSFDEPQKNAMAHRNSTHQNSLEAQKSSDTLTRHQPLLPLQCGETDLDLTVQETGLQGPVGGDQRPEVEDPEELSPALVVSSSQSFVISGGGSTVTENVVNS
Description: The cells were seeded into a F25 flask at 3×10^6 cells/10 mL, and allowed to stand in a CO2 incubator (5% CO2, 37° C.) for 24 hours. Then, the cells were transfected with the human CaSR-expression plasmid hCaSR/pcDNA3.1 by using a transfection reagent Fugene6 (available from Roche Company). The cells were placed in a CO2 incubator for 6 to 7 hours, and then the cells were harvested by using DMEM/Ham's-F12 containing 10% fetal calf serum. Then, the cells were seeded into a poly-D-lysine-coated 96-well plate (BD-Biocoat) at 70,000 cells/well.
The plate was allowed to stand over 24 hours in a CO2 incubator, and then the culture medium was removed from the 96-well plate into which the cells were seeded. […] Then, the indicator was incorporated into the cells by allowing the plate to stand at 37° C. for one hour, and then at room temperature for 10 minutes.
Method for the Determination of EC50:
The differences between the maximum value and minimum value of the fluorescent intensity (RFU (Max-Min)) were determined by automatic calculation of FLEX Station before and after the addition of the compound. The percentage of activities was calculated, with the RFU (Max-Min) at the time when the maximum concentration of the compound added was defined to be 100%, and the RFU (Max-Min) at the time when the 0.1% BSA-containing assay buffer containing no test compound was defined to be 0%.

For CC[C@H](NC(=O)CC[C@H](N)C(=O)O)C(=O)O, the “Str. of Salty Taste (score)” value (panelists) was 3.56 score and the “CaSR effect and activity (in words)” value (human CaSR) was “strong CaSR effect and activity comparable to that of γ-Glu-Cys”.
